Source: PMC4521081, “Thiophenecarboxamide Derivatives Activated by EthA Kill Mycobacterium tuberculosis by Inhibiting the CTP Synthetase PyrG” (Chemistry & Biology, 2015)
Converted amounts (≈) assume the structure as drawn.

Experiments:
[1] = tested on: M. tuberculosis 88.10 (pyrG V186G); assay type: cell-based, Mycobacterium tuberculosis
[2] = tested on: M. tuberculosis 82.14 (ethA W45R, pyrG V186G); assay type: cell-based, Mycobacterium tuberculosis
[3] = tested on: M. tuberculosis 82.19 (ethA L129P, pyrG V186G); assay type: cell-based, Mycobacterium tuberculosis
[4] = tested on: M. tuberculosis 82.22 (ethA ΔT-94, pyrG V186G); assay type: cell-based, Mycobacterium tuberculosis
[5] = tested on: M. tuberculosis ethA mutant 81.10 (Δ1109–1137); assay type: cell-based, Mycobacterium tuberculosis
[6] = tested on: M. tuberculosis pyrG mutant 88.7 (V186G); assay type: cell-based, Mycobacterium tuberculosis
PyrG V186G mutant = PyrG V186G mutant (Mycobacterium tuberculosis, UniProt P9WHK7, V186G); assay type: biochemical, M. tuberculosis

SMILES | MIC [1] | MIC [2] | MIC [3] | MIC [4] | MIC [5] | MIC [6] | % of inhibition at 200 M PyrG V186G mutant (PyrG V186G mutant) | activity against PyrG V186G mutant (PyrG V186G mutant) | resistance of 81.10 mutant (mutated in ethA gene) [5]
Cc1ccc(C(=O)Nc2ccc([N+](=O)[O-])cc2)s1 [compound 7947882, 5-methyl-N-(4-nitrophenyl)thiophene-2-carboxamide] | 5 to 10 µg/mL | >40 µg/mL | >40 µg/mL | >40 µg/mL | – | – | – | – | –
CCc1cc(C(N)=S)ccn1 [ETH, ethionamide, reference compound] | 0.5 µg/mL (≈ 3.01 µM) | 10 µg/mL (≈ 60.2 µM) | 10 µg/mL (≈ 60.2 µM) | 10 µg/mL (≈ 60.2 µM) | 10 µg/mL (≈ 60.2 µM) | 0.5 µg/mL (≈ 3.01 µM) | – | – | –
O=C(CCc1ccccc1)NC(=S)Nc1ccc(N2CCCCC2)cc1 [compound 7904688, 3-phenyl-N-[(4-piperidin-1-ylphenyl)carbamothioyl]propanamide] | 10 µg/mL (≈ 27.2 µM) | >40 µg/mL | >40 µg/mL | >40 µg/mL | >40 µg/mL | 10 µg/mL (≈ 27.2 µM) | – | – | –
CC1=CC=C(C(=O)Nc2ccc([N+](=O)[O-])cc2)S1(=O)=O [compound 11426026] | – | – | – | – | 1 µg/mL (≈ 3.4 µM) | 2.5 µg/mL (≈ 8.5 µM) | 18.3 ± 1.5% | not active | –
Cc1ccc(C(=O)O)s1 [compound 11326028, 5-methylthiophene-2-carboxylic acid] | – | – | – | – | – | > 8 µg/mL | – | – | resistant
COc1ccc(NC(=O)c2cc([N+](=O)[O-])c(C)s2)cc1OC [compound 11326054] | – | – | – | – | – | > 8 µg/mL | – | – | resistant
